Test results reported in patent publication EP0600782A1, “C-11 modified pradimicin derivatives” (priority 1992, dated 1994).
Values after ≈ are worked out from the molar mass of the structure shown.

Experiments:
Candida albicans A9540 = experiment: In vitro antifungal activity (MIC), agar dilution on yeast morphology agar; type: cell-based; conditions: YMA, 0.06M phosphate (pH 7.0), 28°C, 40 hours, read-out: MIC Ca-4
Procedure: (§1) The in vitro antifungal activity (MIC) of the compounds of the invention was determined on yeast morphology agar (YMA, Difco Laboratories, USA), buffered with 0.06M phosphate (pH 7.0). Nine parts of molten agar were combined with one part of antibiotic dilution in petri dishes. A 5-µl suspension containing 2x10⁶ cells/ml was spotted on the surface of the agar plates. The plates were incubated at 28°C and MICs were recorded after 40 hours of the incubation. All of the 11-hydroxy derivatives of Formula I-I are active against a wide range of fungi.

[1] = tested on: Candida tropicalis IFO10241; experiment: as above; type: cell-based; conditions: YMA, 0.06M phosphate (pH 7.0), 28°C, 40 hours, read-out: MIC Ct-12
Procedure: as §1

[2] = tested on: Cryptococcus neoformans IAM4514; experiment: as above; type: cell-based; conditions: YMA, 0.06M phosphate (pH 7.0), 28°C, 40 hours, read-out: MIC Cn-2
Procedure: as §1

Strain AA 3798 = experiment: Antibiotic susceptibility of the producing strain, antibiotic disks; type: cell-based, unidentified actinomycete; conditions: yeast-glucose-malt agar, 37°C, 4 days
Procedure: Antibiotic susceptibility of strain AA 3798 was examined using antibiotic disks (Tridisk, Eiken Chemical Co., Ltd). The disks were placed onto the surface of yeast-glucose-malt agar (yeast extract 0.1%, glucose 1%, malt extract 0.1%, CaCl₂·2H₂O 0.05%, and agar 1.5%) which had been seeded by strain AA 3798 (4% inoculum), and the plates were then incubated at 37°C for 4 days.

| Compound | MIC (Candida albicans A9540) [µg/mL] | MIC [1] [µg/mL] | MIC [2] [µg/mL] | further results |
| --- | --- | --- | --- | --- |
| CNC1C(C)OC(OC2c3cc(C)c(C(=O)NC(C)C(=O)O)c(O)c3-c3c(cc4c(c3O)C(=O)c3cc(O)cc(O)c3C4=O)C2O)C(O)C1OC1OCC(O)C(O)C1O (stereo not drawn) [Compound IA, 11-O-Demethylpradimicin A] | 6.3 (≈ 7.62 µM) | 25 (≈ 30.2 µM) | 3.1 (≈ 3.75 µM) | – |
| Cc1cc2c(c(O)c1C(=O)NC(C)C(=O)O)-c1c(cc3c(c1O)C(=O)c1cc(O)cc(O)c1C3=O)C(O)C2OC1OC(C)C(N)C(OC2OCC(O)C(O)C2O)C1O (stereo not drawn) [IC, 11-O-Demethylpradimicin C] | 6.3 (≈ 7.75 µM) | 12.5 (≈ 15.4 µM) | 1.6 (≈ 1.97 µM) | – |
| CNC1C(C)OC(OC2c3cc(C)c(C(=O)NC(CO)C(=O)O)c(O)c3-c3c(cc4c(c3O)C(=O)c3cc(O)cc(O)c3C4=O)C2O)C(O)C1OC1OCC(O)C(O)C1O (stereo not drawn) [ID, 11-O-Demethylpradimicin FA-1] | 6.3 (≈ 7.48 µM) | 12.5 (≈ 14.8 µM) | 3.1 (≈ 3.68 µM) | – |
| Cc1cc2c(c(O)c1C(=O)NC(CO)C(=O)O)-c1c(cc3c(c1O)C(=O)c1cc(O)cc(O)c1C3=O)C(O)C2OC1OC(C)C(N(C)C)C(OC2OCC(O)C(O)C2O)C1O (stereo not drawn) [IE, 11-O-Demethyl-BMS-181182] | 6.3 (≈ 7.35 µM) | 25 (≈ 29.2 µM) | 6.3 (≈ 7.35 µM) | – |
| Cc1cc2c(c(O)c1C(=O)NC(CO)C(=O)O)-c1c(cc3c(c1O)C(=O)c1cc(O)cc(O)c1C3=O)C(O)C2OC1OC(C)C(O)C(OC2OCC(O)C(O)C2O)C1O (stereo not drawn) [IF, 11-O-Demethyl-BMS-181184] | 6.3 (≈ 7.59 µM) | 12.5 (≈ 15.1 µM) | 12.5 (≈ 15.1 µM) | – |
| CCOc1cc(O)c2c(c1)C(=O)c1c(cc3c(c1O)-c1c(cc(C)c(C(=O)NCC(=O)O)c1O)[C@H](O[C@@H]1O[C@H](C)[C@H](O)[C@H](O[C@@H]4OC[C@@H](O)[C@H](O)[C@H]4O)[C@H]1O)[C@H]3O)C2=O [IIA, 11-O-Dexylosyl-11-O-ethylpradimicin T1] | 3.1 (≈ 3.75 µM) | 12.5 (≈ 15.1 µM) | 1.6 (≈ 1.93 µM) | – |
| Cc1cc2c(c(O)c1C(=O)NCC(=O)O)-c1c(cc3c(c1O)C(=O)c1cc(OCCF)cc(O)c1C3=O)[C@H](O)[C@H]2O[C@@H]1O[C@H](C)[C@H](O)[C@H](O[C@@H]2OC[C@@H](O)[C@H](O)[C@H]2O)[C@H]1O [IIB, 11-O-Dexylosyl-11-O-(2-fluoroethyl)pradimicin T1] | 3.1 (≈ 3.67 µM) | 6.3 (≈ 7.45 µM) | 1.6 (≈ 1.89 µM) | – |
| C=CCOc1cc(O)c2c(c1)C(=O)c1c(cc3c(c1O)-c1c(cc(C)c(C(=O)NCC(=O)O)c1O)[C@H](O[C@@H]1O[C@H](C)[C@H](O)[C@H](O[C@@H]4OC[C@@H](O)[C@H](O)[C@H]4O)[C@H]1O)[C@H]3O)C2=O [IIC, 11-O-Allyl-11-O-dexylosylpradimicin T1] | 6.3 (≈ 7.5 µM) | 12.5 (≈ 14.9 µM) | 3.1 (≈ 3.69 µM) | – |
| Cc1cc2c(c(O)c1C(=O)NCC(=O)O)-c1c(cc3c(c1O)C(=O)c1cc(OCc4ccccc4)cc(O)c1C3=O)[C@H](O)[C@H]2O[C@@H]1O[C@H](C)[C@H](O)[C@H](O[C@@H]2OC[C@@H](O)[C@H](O)[C@H]2O)[C@H]1O [IID, 11-O-Benzyl-11-O-dexylosylpradimicin T1] | > 100 | > 100 | 12.5 (≈ 14 µM) | – |
| CNC1C(C)OC(OC2c3cc(C)c(C(=O)NC(C)C(=O)O)c(O)c3-c3c(cc4c(c3O)C(=O)c3cccc(O)c3C4=O)C2O)C(O)C1OC1OCC(O)C(O)C1O (stereo not drawn) [IIG, 11-Demethoxypradimicin A] | 6.3 (≈ 7.77 µM) | 12.5 (≈ 15.4 µM) | 1.6 (≈ 1.97 µM) | – |
| Cc1cc2c(c(O)c1C(=O)NCC(=O)O)-c1c(cc3c(c1O)C(=O)c1cccc(O)c1C3=O)[C@H](O)[C@H]2O[C@@H]1O[C@H](C)[C@H](O)[C@H](O[C@@H]2OC[C@@H](O)[C@H](O)[C@H]2O)[C@H]1O [III, 11-Dexylosyloxypradimicin T1] | 6.3 (≈ 8.04 µM) | 12.5 (≈ 16 µM) | 6.3 (≈ 8.04 µM) | – |
| Cc1cc2c(c(O)c1C(=O)NCC(=O)O)-c1c(cc3c(c1O)C(=O)c1cc(N(C)C)cc(O)c1C3=O)[C@H](O)[C@H]2O[C@@H]1O[C@H](C)[C@H](O)[C@H](O[C@@H]2OC[C@@H](O)[C@H](O)[C@H]2O)[C@H]1O [IIJ, 11-Dexylosyloxy-11-dimethylaminopradimicin T1] | 12.5 (≈ 15.1 µM) | > 100 | 50 (≈ 60.5 µM) | – |
| Cc1cc2c(c(O)c1C(=O)NCC(=O)O)-c1c(cc3c(c1O)C(=O)c1cc(C(N)=O)cc(O)c1C3=O)[C@H](O)[C@H]2O[C@@H]1O[C@H](C)[C@H](O)[C@H](O[C@@H]2OC[C@@H](O)[C@H](O)[C@H]2O)[C@H]1O [IIK, 11-Carbamoyl-11-dexylosyloxy pradimicin T1] | 12.5 (≈ 15.1 µM) | 25 (≈ 30.2 µM) | 6.3 (≈ 7.62 µM) | – |
| Cc1cc2c(c(O)c1C(=O)NCC(=O)O)-c1c(cc3c(c1O)C(=O)c1cc(C#N)cc(O)c1C3=O)[C@H](O)[C@H]2O[C@@H]1O[C@H](C)[C@H](O)[C@H](O[C@@H]2OC[C@@H](O)[C@H](O)[C@H]2O)[C@H]1O [IIL, 11-Cyano-11-dexylosyloxy pradimicin T1] | 12.5 (≈ 15.5 µM) | 25 (≈ 30.9 µM) | 6.3 (≈ 7.79 µM) | – |
| CN[C@@H]1[C@H](O[C@@H]2OC[C@@H](O)[C@H](O)[C@H]2O)[C@@H](O)[C@H](O[C@H]2c3cc(C)c(C(=O)N[C@H](C)C(=O)O)c(O)c3-c3c(cc4c(c3O)C(=O)c3cc(OC)cc(O)c3C4=O)[C@@H]2O)O[C@@H]1C [Pradimicin A, reference compound] | 6.3 (≈ 7.49 µM) | 12.5 (≈ 14.9 µM) | 1.6 (≈ 1.9 µM) | – |
| CC1(C)S[C@@H]2[C@H](NC(=O)[C@H](N)c3ccccc3)C(=O)N2[C@H]1C(=O)O [ampicillin] | – | – | – | Antibiotic susceptibility of strain AA 3798 (Strain AA 3798; disk 20 µg): resistance |
| CC1=C(C(=O)O)N2C(=O)[C@@H](NC(=O)[C@H](N)c3ccccc3)[C@H]2SC1 [cephalexin] | – | – | – | Antibiotic susceptibility of strain AA 3798 (Strain AA 3798; disk 10 µg): resistance |
| O=C(N[C@H](CO)[C@H](O)c1ccc([N+](=O)[O-])cc1)C(Cl)Cl [chloramphenicol] | – | – | – | Antibiotic susceptibility of strain AA 3798 (Strain AA 3798; disk 10 µg): susceptible |
| O=C(O)[C@H]1/C(=C/CO)O[C@@H]2CC(=O)N21 [clavulanic acid] | – | – | – | Antibiotic susceptibility of strain AA 3798 (Strain AA 3798; disk 1 µg): susceptible |
| CC[C@H]1OC(=O)[C@H](C)[C@@H](O[C@H]2C[C@@](C)(OC)[C@@H](O)[C@H](C)O2)[C@H](C)[C@@H](O[C@@H]2O[C@H](C)C[C@H](N(C)C)[C@H]2O)[C@](C)(O)C[C@@H](C)C(=O)[C@H](C)[C@@H](O)[C@]1(C)O [erythromycin] | – | – | – | Antibiotic susceptibility of strain AA 3798 (Strain AA 3798; disk 10 µg): resistance |
| C[C@@H]1O[C@@H]1P(=O)(O)O [fosfomycin] | – | – | – | Antibiotic susceptibility of strain AA 3798 (Strain AA 3798; disk 50 µg): resistance |
| CO[C@@H]1[C@@H](O[C@@H]2O[C@H](C)[C@@H](O[C@H]3C[C@@](C)(O)[C@@H](OC(=O)CC(C)C)[C@H](C)O3)[C@H](N(C)C)[C@H]2O)[C@@H](CC=O)C[C@@H](C)[C@@H](O)/C=C/C=C/C[C@@H](C)OC(=O)C[C@H]1OC(C)=O [josamycin] | – | – | – | Antibiotic susceptibility of strain AA 3798 (Strain AA 3798; disk 15 µg): resistance |
| CCC[C@@H]1C[C@@H](C(=O)N[C@@H]([C@H]2O[C@H](SC)[C@H](O)[C@@H](O)[C@H]2O)[C@@H](C)O)N(C)C1 [lincomycin] | – | – | – | Antibiotic susceptibility of strain AA 3798 (Strain AA 3798; disk 15 µg): resistance |
| CCn1cc(C(=O)O)c(=O)c2ccc(C)nc21 [nalidixic acid] | – | – | – | Antibiotic susceptibility of strain AA 3798 (Strain AA 3798; disk 15 µg): resistance |
| CCn1cc(C(=O)O)c(=O)c2cc(F)c(N3CCNCC3)cc21 [norfloxacin] | – | – | – | Antibiotic susceptibility of strain AA 3798 (Strain AA 3798; disk 2 µg): susceptible |
| CC1(C)S[C@@H]2[C@H](NC(=O)[C@H](C(=O)O)c3ccsc3)C(=O)N2[C@H]1C(=O)O [ticarcillin] | – | – | – | Antibiotic susceptibility of strain AA 3798 (Strain AA 3798; disk 2 µg): susceptible |
| NC[C@H]1O[C@H](O[C@H]2[C@H](O)[C@@H](O[C@H]3O[C@H](CO)[C@@H](O)[C@H](N)[C@H]3O)[C@H](N)C[C@@H]2N)[C@H](N)C[C@@H]1O [tobramycin] | – | – | – | Antibiotic susceptibility of strain AA 3798 (Strain AA 3798; disk 10 µg): resistance |
| colistin | – | – | – | Antibiotic susceptibility of strain AA 3798 (Strain AA 3798; disk 50 U): susceptible |
| gentamicin | – | – | – | Antibiotic susceptibility of strain AA 3798 (Strain AA 3798; disk 5 µg): resistance |
| polymyxin B | – | – | – | Antibiotic susceptibility of strain AA 3798 (Strain AA 3798; disk 300 U): resistance |
